Laboratory results reported in the NIST ThermoML archive (doi:10.1021/je8007217).
Numbers after ± are expanded uncertainties.

Columns and labels:
[1] = 298.15 K, 101 kPa, Liquid; for viscosity: Capillary tube (Ostwald / Ubbelohde) method; for mass density: Pycnometric method
[2] = xn = mol fraction of the nth substance listed; settings: 298.15 K, 101 kPa, Liquid; for viscosity: Capillary tube (Ostwald / Ubbelohde) method; for mass density: Pycnometric method

C1CCCCC1 [cyclohexane]
[1]
Settings	mass density [kg/m3]	viscosity [mPa·s]
–	773.8 ± 0.2	0.892 ± 0.008

C1CCCCC1 [cyclohexane] + CCCOC(C)=O
[2], x1 = 1
Settings	mass density [kg/m3]	viscosity [mPa·s]
–	773.8 ± 0.2	0.892 ± 0.008

C1CCCCC1 [cyclohexane] + CCOC(C)=O
[2], x1 = 1
Settings	mass density [kg/m3]	viscosity [mPa·s]
–	773.8 ± 0.2	0.892 ± 0.008

C1CCCCC1 [cyclohexane] + COC(C)=O
[2], x1 = 1
Settings	mass density [kg/m3]	viscosity [mPa·s]
–	773.8 ± 0.2	0.892 ± 0.008

C1CCCCC1 [cyclohexane] + O=C1CCCCC1
[2], x1 = 1
Settings	mass density [kg/m3]	viscosity [mPa·s]
–	773.8 ± 0.2	0.892 ± 0.008

O=C1CCCCC1 [cyclohexanone]
[1]
Settings	mass density [kg/m3]	viscosity [mPa·s]
–	941.6 ± 0.3	2.02 ± 0.013

O=C1CCCCC1 [cyclohexanone] + C1CCCCC1
[2]
Settings	mass density [kg/m3]	viscosity [mPa·s]
x2 = 0	941.6 ± 0.3	2.02 ± 0.013
x2 = 0.1147	921.8 ± 0.3	1.813 ± 0.012
x2 = 0.2257	903 ± 0.2	1.638 ± 0.011
x2 = 0.3332	884.8 ± 0.2	1.475 ± 0.01
x2 = 0.4374	867.1 ± 0.2	1.335 ± 0.01
x2 = 0.5384	849.6 ± 0.2	1.225 ± 0.009
x2 = 0.6363	832.5 ± 0.2	1.126 ± 0.009
x2 = 0.7313	816 ± 0.2	1.038 ± 0.009
x2 = 0.8235	800 ± 0.2	0.965 ± 0.008
x2 = 0.913	785.9 ± 0.2	0.921 ± 0.008

O=C1CCCCC1 [cyclohexanone] + CCCOC(C)=O
[2]
Settings	mass density [kg/m3]	viscosity [mPa·s]
x1 = 0.1036	888.2 ± 0.2	0.609 ± 0.007
x1 = 0.2064	894.2 ± 0.2	0.666 ± 0.007
x1 = 0.3084	900.4 ± 0.2	0.731 ± 0.007
x1 = 0.4096	906.5 ± 0.2	0.821 ± 0.008
x1 = 0.5099	912.4 ± 0.2	0.926 ± 0.008
x1 = 0.6095	918.4 ± 0.2	1.049 ± 0.009
x1 = 0.7083	924.3 ± 0.2	1.199 ± 0.009
x1 = 0.8063	930.2 ± 0.2	1.407 ± 0.01
x1 = 0.9035	936.1 ± 0.2	1.685 ± 0.011
x1 = 1	941.6 ± 0.3	2.02 ± 0.013

O=C1CCCCC1 [cyclohexanone] + CCOC(C)=O
[2]
Settings	mass density [kg/m3]	viscosity [mPa·s]
x1 = 0.0907	898.3 ± 0.2	0.47 ± 0.007
x1 = 0.1833	902.6 ± 0.2	0.521 ± 0.007
x1 = 0.2778	907.3 ± 0.2	0.585 ± 0.007
x1 = 0.3744	912.3 ± 0.2	0.667 ± 0.007
x1 = 0.473	917.5 ± 0.2	0.764 ± 0.008
x1 = 0.5738	922.6 ± 0.2	0.892 ± 0.008
x1 = 0.6769	927.6 ± 0.2	1.058 ± 0.009
x1 = 0.7822	932.6 ± 0.2	1.289 ± 0.01
x1 = 0.8899	937.3 ± 0.2	1.604 ± 0.011
x1 = 1	941.6 ± 0.3	2.02 ± 0.013

O=C1CCCCC1 [cyclohexanone] + COC(C)=O
[2]
Settings	mass density [kg/m3]	viscosity [mPa·s]
x1 = 0.0774	927.4 ± 0.2	0.407 ± 0.007
x1 = 0.1587	928.5 ± 0.2	0.445 ± 0.007
x1 = 0.2444	929.9 ± 0.2	0.504 ± 0.007
x1 = 0.3347	931.3 ± 0.2	0.577 ± 0.007
x1 = 0.4301	932.9 ± 0.2	0.666 ± 0.007
x1 = 0.531	934.6 ± 0.2	0.779 ± 0.008
x1 = 0.6378	936.4 ± 0.2	0.936 ± 0.008
x1 = 0.7512	938.2 ± 0.2	1.163 ± 0.009
x1 = 0.8717	940.2 ± 0.2	1.488 ± 0.01
x1 = 1	941.6 ± 0.3	2.02 ± 0.013

CCOC(C)=O [ethyl acetate]
[1]
Settings	mass density [kg/m3]	viscosity [mPa·s]
–	894.5 ± 0.2	0.426 ± 0.007

CCOC(C)=O [ethyl acetate] + C1CCCCC1
[2]
Settings	mass density [kg/m3]	viscosity [mPa·s]
x2 = 0	894.5 ± 0.2	0.426 ± 0.007
x2 = 0.1042	877 ± 0.2	0.432 ± 0.007
x2 = 0.2074	861.2 ± 0.2	0.436 ± 0.007
x2 = 0.3097	847 ± 0.2	0.441 ± 0.007
x2 = 0.4111	833.9 ± 0.2	0.462 ± 0.007
x2 = 0.5115	822.1 ± 0.2	0.493 ± 0.007
x2 = 0.611	811.2 ± 0.2	0.533 ± 0.007
x2 = 0.7095	801.2 ± 0.2	0.585 ± 0.007
x2 = 0.8072	791.8 ± 0.2	0.653 ± 0.007
x2 = 0.904	782.7 ± 0.2	0.749 ± 0.008

CCOC(C)=O [ethyl acetate] + O=C1CCCCC1
[2], x2 = 0
Settings	mass density [kg/m3]	viscosity [mPa·s]
–	894.5 ± 0.2	0.426 ± 0.007

COC(C)=O [methyl ethanoate]
[1]
Settings	mass density [kg/m3]	viscosity [mPa·s]
–	926.8 ± 0.2	0.38 ± 0.007

COC(C)=O [methyl ethanoate] + C1CCCCC1
[2]
Settings	mass density [kg/m3]	viscosity [mPa·s]
x2 = 0	926.8 ± 0.2	0.38 ± 0.007
x2 = 0.0891	903.7 ± 0.3	0.381 ± 0.007
x2 = 0.1804	883.3 ± 0.2	0.383 ± 0.007
x2 = 0.2739	864.7 ± 0.2	0.388 ± 0.007
x2 = 0.3698	848.5 ± 0.2	0.407 ± 0.007
x2 = 0.4681	833.1 ± 0.2	0.437 ± 0.007
x2 = 0.569	819.4 ± 0.2	0.477 ± 0.007
x2 = 0.6725	806.4 ± 0.2	0.535 ± 0.007
x2 = 0.7788	794.9 ± 0.2	0.603 ± 0.007
x2 = 0.8879	784.2 ± 0.2	0.708 ± 0.007

COC(C)=O [methyl ethanoate] + O=C1CCCCC1
[2], x2 = 0
Settings	mass density [kg/m3]	viscosity [mPa·s]
–	926.8 ± 0.2	0.38 ± 0.007

CCCOC(C)=O [propyl ethanoate]
[1]
Settings	mass density [kg/m3]	viscosity [mPa·s]
–	883 ± 0.2	0.551 ± 0.007

CCCOC(C)=O [propyl ethanoate] + C1CCCCC1
[2]
Settings	mass density [kg/m3]	viscosity [mPa·s]
x2 = 0	883 ± 0.2	0.551 ± 0.007
x2 = 0.1188	868.5 ± 0.2	0.54 ± 0.007
x2 = 0.2328	854.7 ± 0.2	0.548 ± 0.007
x2 = 0.3421	841.8 ± 0.2	0.554 ± 0.007
x2 = 0.4472	829.9 ± 0.2	0.572 ± 0.007
x2 = 0.5482	819.3 ± 0.2	0.587 ± 0.007
x2 = 0.6454	809.3 ± 0.2	0.625 ± 0.007
x2 = 0.739	800 ± 0.2	0.663 ± 0.007
x2 = 0.8292	791.1 ± 0.2	0.715 ± 0.007
x2 = 0.9161	782.3 ± 0.2	0.786 ± 0.008

CCCOC(C)=O [propyl ethanoate] + O=C1CCCCC1
[2], x2 = 0
Settings	mass density [kg/m3]	viscosity [mPa·s]
–	883 ± 0.2	0.551 ± 0.007
